{"source": "the supplement of paper PMC10307832", "assay_in_all_cases": "relative viability (nuclei count vs DMSO), 5 days (fraction); higher = more cells survive", "key": {"EPLC-272H": {"system": "EPLC-272H", "outline": "(§1)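 Each reported value is a median over duplicate plates. It expresses relative viability: treated-well nuclei count divided by vehicle-well nuclei count. Lung cancer cell lines in 1536-well plates were dosed by pin tool a day after seeding, alone with one drug or with a fixed anchor-drug dose plus five library-drug doses (not always all listed) in √10 steps, and nuclei were counted after 5 days.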"}, "NCI-H2405": {"system": "NCI-H2405", "outline": "as §1"}, "NCI-H1975": {"system": "NCI-H1975", "outline": "as §1"}, "LCLC-97TM1": {"system": "LCLC-97TM1", "outline": "as §1"}, "NCI-H520": {"system": "NCI-H520", "outline": "as §1"}, "CAL-12T": {"system": "CAL-12T", "outline": "as §1"}, "NCI-H1563": {"system": "NCI-H1563", "outline": "as §1"}, "NCI-H1792": {"system": "NCI-H1792", "outline": "as §1"}, "NCI-H838": {"system": "NCI-H838", "outline": "as §1"}, "A-427": {"system": "A-427", "outline": "as §1"}, "NCI-H1915": {"system": "NCI-H1915", "outline": "as §1"}, "LC-2-ad": {"system": "LC-2-ad", "outline": "as §1"}, "UMC-11": {"system": "UMC-11", "outline": "as §1"}, "SW 1573": {"system": "SW 1573", "outline": "as §1"}, "HCC-15": {"system": "HCC-15", "outline": "as §1"}, "NCI-H2023": {"system": "NCI-H2023", "outline": "as §1"}, "HCC-44": {"system": "HCC-44", "outline": "as §1"}, "COR-L 105": {"system": "COR-L 105", "outline": "as §1"}, "NCI-H2347": {"system": "NCI-H2347", "outline": "as §1"}, "NCI-H1734": {"system": "NCI-H1734", "outline": "as §1"}}, "data": [{"smiles": "CCNC(=O)c1noc(-c2cc(C(C)C)c(O)cc2O)c1-c1ccc(CN2CCOCC2)cc1", "note": "[Luminespib] + CC(C)C[C@H](NC(=O)[C@H](Cc1ccccc1)NC(=O)c1cnccn1)B(O)O [Bortezomib] (partner 0.002 µM)", "values": [{"measurement": "relative viability", "setting": "EPLC-272H; first compound 0.006325 µM", "result": 0.83}, {"measurement": "relative viability", "setting": "EPLC-272H; first compound 0.02 µM", "result": 0.678}, {"measurement": "relative viability", "setting": "EPLC-272H; first compound 0.06325 µM", "result": 0.913}, {"measurement": "relative viability", "setting": "EPLC-272H; first compound 0.2 µM", "result": 0.293}, {"measurement": "relative viability", "setting": "NCI-H2405; first compound 0.002 µM", "result": 0.987}, {"measurement": "relative viability", "setting": "NCI-H2405; first compound 0.006325 µM", "result": 0.533}, {"measurement": "relative viability", "setting": "NCI-H2405; first compound 0.02 µM", "result": 0.835}, {"measurement": "relative viability", "setting": "NCI-H2405; first compound 0.06325 µM", "result": 0.9}, {"measurement": "relative viability", "setting": "NCI-H2405; first compound 0.2 µM", "result": 0.358}, {"measurement": "relative viability", "setting": "NCI-H1975; first compound 0.002 µM", "result": 0.444}, {"measurement": "relative viability", "setting": "NCI-H1975; first compound 0.006325 µM", "result": 0.389}, {"measurement": "relative viability", "setting": "NCI-H1975; first compound 0.02 µM", "result": 0.219}, {"measurement": "relative viability", "setting": "NCI-H1975; first compound 0.06325 µM", "result": 0.149}, {"measurement": "relative viability", "setting": "NCI-H1975; first compound 0.2 µM", "result": 0.119}, {"measurement": "relative viability", "setting": "LCLC-97TM1; first compound 0.002 µM", "result": 0.876}, {"measurement": "relative viability", "setting": "LCLC-97TM1; first compound 0.006325 µM", "result": 0.635}, {"measurement": "relative viability", "setting": "LCLC-97TM1; first compound 0.02 µM", "result": 0.638}, {"measurement": "relative viability", "setting": "LCLC-97TM1; first compound 0.06325 µM", "result": 0.0526}, {"measurement": "relative viability", "setting": "LCLC-97TM1; first compound 0.2 µM", "result": 0.0579}, {"measurement": "relative viability", "setting": "NCI-H520; first compound 0.002 µM", "result": 0.556}, {"measurement": "relative viability", "setting": "NCI-H520; first compound 0.006325 µM", "result": 0.51}, {"measurement": "relative viability", "setting": "NCI-H520; first compound 0.02 µM", "result": 0.41}, {"measurement": "relative viability", "setting": "NCI-H520; first compound 0.06325 µM", "result": 0.103}, {"measurement": "relative viability", "setting": "NCI-H520; first compound 0.2 µM", "result": 0.109}, {"measurement": "relative viability", "setting": "CAL-12T; first compound 0.002 µM", "result": 1.04}, {"measurement": "relative viability", "setting": "CAL-12T; first compound 0.006325 µM", "result": 0.929}, {"measurement": "relative viability", "setting": "CAL-12T; first compound 0.02 µM", "result": 0.539}, {"measurement": "relative viability", "setting": "CAL-12T; first compound 0.06325 µM", "result": 0.147}, {"measurement": "relative viability", "setting": "CAL-12T; first compound 0.2 µM", "result": 0.149}, {"measurement": "relative viability", "setting": "NCI-H1563; first compound 0.002 µM", "result": 0.956}, {"measurement": "relative viability", "setting": "NCI-H1563; first compound 0.006325 µM", "result": 0.821}, {"measurement": "relative viability", "setting": "NCI-H1563; first compound 0.02 µM", "result": 0.535}, {"measurement": "relative viability", "setting": "NCI-H1563; first compound 0.06325 µM", "result": 0.479}, {"measurement": "relative viability", "setting": "NCI-H1563; first compound 0.2 µM", "result": 0.507}, {"measurement": "relative viability", "setting": "NCI-H1792; first compound 0.002 µM", "result": 0.93}, {"measurement": "relative viability", "setting": "NCI-H1792; first compound 0.006325 µM", "result": 0.888}, {"measurement": "relative viability", "setting": "NCI-H1792; first compound 0.02 µM", "result": 0.633}, {"measurement": "relative viability", "setting": "NCI-H1792; first compound 0.06325 µM", "result": 0.478}, {"measurement": "relative viability", "setting": "NCI-H1792; first compound 0.2 µM", "result": 0.36}, {"measurement": "relative viability", "setting": "NCI-H838; first compound 0.002 µM", "result": 0.877}, {"measurement": "relative viability", "setting": "NCI-H838; first compound 0.006325 µM", "result": 0.723}, {"measurement": "relative viability", "setting": "NCI-H838; first compound 0.02 µM", "result": 0.389}, {"measurement": "relative viability", "setting": "NCI-H838; first compound 0.06325 µM", "result": 0.0924}, {"measurement": "relative viability", "setting": "NCI-H838; first compound 0.2 µM", "result": 0.0934}, {"measurement": "relative viability", "setting": "A-427; first compound 0.002 µM", "result": 1.04}, {"measurement": "relative viability", "setting": "A-427; first compound 0.006325 µM", "result": 0.926}, {"measurement": "relative viability", "setting": "A-427; first compound 0.02 µM", "result": 0.811}, {"measurement": "relative viability", "setting": "A-427; first compound 0.06325 µM", "result": 0.94}, {"measurement": "relative viability", "setting": "A-427; first compound 0.2 µM", "result": 0.584}, {"measurement": "relative viability", "setting": "NCI-H1915; first compound 0.002 µM", "result": 0.976}, {"measurement": "relative viability", "setting": "NCI-H1915; first compound 0.006325 µM", "result": 0.995}, {"measurement": "relative viability", "setting": "NCI-H1915; first compound 0.02 µM", "result": 1.02}, {"measurement": "relative viability", "setting": "NCI-H1915; first compound 0.06325 µM", "result": 0.942}, {"measurement": "relative viability", "setting": "NCI-H1915; first compound 0.2 µM", "result": 0.442}, {"measurement": "relative viability", "setting": "LC-2-ad; first compound 0.002 µM", "result": 0.733}, {"measurement": "relative viability", "setting": "LC-2-ad; first compound 0.006325 µM", "result": 1.02}, {"measurement": "relative viability", "setting": "LC-2-ad; first compound 0.02 µM", "result": 1.1}, {"measurement": "relative viability", "setting": "LC-2-ad; first compound 0.06325 µM", "result": 0.133}, {"measurement": "relative viability", "setting": "LC-2-ad; first compound 0.2 µM", "result": 0.0947}, {"measurement": "relative viability", "setting": "UMC-11; first compound 0.002 µM", "result": 0.838}, {"measurement": "relative viability", "setting": "UMC-11; first compound 0.006325 µM", "result": 0.616}, {"measurement": "relative viability", "setting": "UMC-11; first compound 0.02 µM", "result": 0.365}, {"measurement": "relative viability", "setting": "UMC-11; first compound 0.06325 µM", "result": 0.226}, {"measurement": "relative viability", "setting": "UMC-11; first compound 0.2 µM", "result": 0.087}, {"measurement": "relative viability", "setting": "SW 1573; first compound 0.002 µM", "result": 1.07}, {"measurement": "relative viability", "setting": "SW 1573; first compound 0.006325 µM", "result": 0.941}, {"measurement": "relative viability", "setting": "SW 1573; first compound 0.02 µM", "result": 0.96}, {"measurement": "relative viability", "setting": "SW 1573; first compound 0.06325 µM", "result": 0.117}, {"measurement": "relative viability", "setting": "SW 1573; first compound 0.2 µM", "result": 0.114}, {"measurement": "relative viability", "setting": "HCC-15; first compound 0.002 µM", "result": 1.03}, {"measurement": "relative viability", "setting": "HCC-15; first compound 0.006325 µM", "result": 0.906}, {"measurement": "relative viability", "setting": "HCC-15; first compound 0.02 µM", "result": 1.11}, {"measurement": "relative viability", "setting": "HCC-15; first compound 0.06325 µM", "result": 0.517}, {"measurement": "relative viability", "setting": "HCC-15; first compound 0.2 µM", "result": 0.152}, {"measurement": "relative viability", "setting": "NCI-H2023; first compound 0.002 µM", "result": 1.04}, {"measurement": "relative viability", "setting": "NCI-H2023; first compound 0.006325 µM", "result": 0.958}, {"measurement": "relative viability", "setting": "NCI-H2023; first compound 0.02 µM", "result": 0.29}, {"measurement": "relative viability", "setting": "NCI-H2023; first compound 0.06325 µM", "result": 0.069}, {"measurement": "relative viability", "setting": "NCI-H2023; first compound 0.2 µM", "result": 0.0759}, {"measurement": "relative viability", "setting": "HCC-44; first compound 0.002 µM", "result": 0.895}, {"measurement": "relative viability", "setting": "HCC-44; first compound 0.006325 µM", "result": 0.881}, {"measurement": "relative viability", "setting": "HCC-44; first compound 0.02 µM", "result": 1.09}, {"measurement": "relative viability", "setting": "HCC-44; first compound 0.06325 µM", "result": 0.139}, {"measurement": "relative viability", "setting": "HCC-44; first compound 0.2 µM", "result": 0.145}, {"measurement": "relative viability", "setting": "COR-L 105; first compound 0.002 µM", "result": 0.992}, {"measurement": "relative viability", "setting": "COR-L 105; first compound 0.006325 µM", "result": 0.75}, {"measurement": "relative viability", "setting": "COR-L 105; first compound 0.02 µM", "result": 0.342}, {"measurement": "relative viability", "setting": "COR-L 105; first compound 0.06325 µM", "result": 0.176}, {"measurement": "relative viability", "setting": "COR-L 105; first compound 0.2 µM", "result": 0.206}, {"measurement": "relative viability", "setting": "NCI-H2347; first compound 0.002 µM", "result": 0.947}, {"measurement": "relative viability", "setting": "NCI-H2347; first compound 0.006325 µM", "result": 0.601}, {"measurement": "relative viability", "setting": "NCI-H2347; first compound 0.02 µM", "result": 0.737}, {"measurement": "relative viability", "setting": "NCI-H2347; first compound 0.06325 µM", "result": 0.587}, {"measurement": "relative viability", "setting": "NCI-H2347; first compound 0.2 µM", "result": 0.36}, {"measurement": "relative viability", "setting": "NCI-H1734; first compound 0.002 µM", "result": 1.06}, {"measurement": "relative viability", "setting": "NCI-H1734; first compound 0.006325 µM", "result": 0.823}, {"measurement": "relative viability", "setting": "NCI-H1734; first compound 0.02 µM", "result": 0.698}, {"measurement": "relative viability", "setting": "NCI-H1734; first compound 0.06325 µM", "result": 0.118}, {"measurement": "relative viability", "setting": "NCI-H1734; first compound 0.2 µM", "result": 0.117}]}]}
